For this assay, the target named is T1, human MPO (Homo sapiens, UniProt P05164).
T1 sequence (P05164 49-745): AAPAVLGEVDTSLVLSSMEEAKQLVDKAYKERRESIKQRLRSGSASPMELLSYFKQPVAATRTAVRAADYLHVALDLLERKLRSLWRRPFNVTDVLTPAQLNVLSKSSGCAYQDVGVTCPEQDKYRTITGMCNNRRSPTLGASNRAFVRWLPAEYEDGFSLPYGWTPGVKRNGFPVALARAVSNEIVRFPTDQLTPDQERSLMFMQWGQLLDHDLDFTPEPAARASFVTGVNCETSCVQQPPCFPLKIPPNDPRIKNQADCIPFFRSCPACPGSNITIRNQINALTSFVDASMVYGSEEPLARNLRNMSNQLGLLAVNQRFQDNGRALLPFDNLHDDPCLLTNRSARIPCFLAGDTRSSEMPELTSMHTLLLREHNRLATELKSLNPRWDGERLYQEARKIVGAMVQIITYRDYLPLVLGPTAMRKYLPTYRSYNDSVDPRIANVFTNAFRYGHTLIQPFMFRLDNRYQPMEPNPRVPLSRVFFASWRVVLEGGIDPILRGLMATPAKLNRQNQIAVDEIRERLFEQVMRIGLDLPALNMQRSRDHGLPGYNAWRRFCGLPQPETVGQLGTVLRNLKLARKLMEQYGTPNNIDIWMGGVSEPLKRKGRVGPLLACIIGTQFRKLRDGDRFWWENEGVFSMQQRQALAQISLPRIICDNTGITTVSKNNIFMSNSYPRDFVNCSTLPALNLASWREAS
As to the kind of experiment: MPO inhibition screen (TMB oxidation, absorbance). Conditions: at least one version of the screen (compound alone or with added tyrosine, 8 μM final); human MPO 2.5 nM, H2O2 100 μM, pH 6.5. Type of assay: biochemical. How it is done: Methods for the determination of MPO inhibitory activity are disclosed in patent application WO 02/090575. The pharmacological activity of compounds according to the invention was tested in the following screen in which the compound was either tested alone or in the presence of added tyrosine:
Assay buffer: 20 mM sodium/potassium phosphate buffer pH 6.5 containing 10 mM taurine and 100 mM NaCl.
Developing reagent: 2 mM 3,3′,5,5′-tetramethylbenzidine (TMB), 200 μM KI, 200 mM acetate buffer pH 5.4 with 20% DMF.
To 10 μl of diluted compounds in assay buffer, 40 μL of human MPO (final concentration 2.5 nM), with or without 20 μM tyrosine (final concentration, if present, 8 μM), was added and the mixture was incubated for 10 minutes at ambient temperature. Then 50 μl of H2O2 (final concentration 100 μM), or assay buffer alone as a control, were added. After incubation for 10 minutes at ambient temperature, the reaction was stopped by adding 10 μl 0.2 mg/ml of catalase (final concentration 18 μg/ml). The reaction mixture was left for an additional 5 minutes before 100 μl of TMB developing reagent was added. The amount of oxidised 3,3′,5,5′-tetramethylbenzidine formed was then measured after about 5 minutes using absorbance spectroscopy at about […]. IC50 values were then determined using standard procedures.

Bounds are passed on as bounds.

In general, IC50 refers to the concentration at which inhibition is half-maximal. A higher IC50 goes with a need for much substance. `O=c1[nH]c(=S)n(CCO)c2cc[nH]c12` [Example 1, 1-(2-Hydroxyethyl)-2-thioxo-1,2,3,5-tetrahydro-4H-pyrrolo[3,2-d]pyrimidin-4-one] registered a concentration for half-maximal inhibition (IC50) of less than 5 µM.

These data come from US20090124640A1, “Pyrrolo[3,2-D]Pyrimidin-4-One Derivative as Myeloperoxidase Inhibitor” (ASTRAZENECA AB, priority 2006, published 2009).
